From publication PMC10382584, “Macrocyclization of linear molecules by deep learning to facilitate macrocyclic drug candidates discovery” (Nature Communications, 2023)

Key:
Assay in all cases: biochemical
Parameters in all cases: DiscoveRx KINOMEscan competition binding, percent of DMSO control signal at 100 nM
Details in all cases: read-out: Fig. 4a / Percent Control / Compound 1; percent of DMSO control, competition binding
PIM2 = PIM2 (Homo sapiens, UniProt Q9P1W9)
BRK = biological target: T1, BRK (Homo sapiens, UniProt Q13882)
T1 construct: gene PTK6
T1 sequence (Q13882 whole entry): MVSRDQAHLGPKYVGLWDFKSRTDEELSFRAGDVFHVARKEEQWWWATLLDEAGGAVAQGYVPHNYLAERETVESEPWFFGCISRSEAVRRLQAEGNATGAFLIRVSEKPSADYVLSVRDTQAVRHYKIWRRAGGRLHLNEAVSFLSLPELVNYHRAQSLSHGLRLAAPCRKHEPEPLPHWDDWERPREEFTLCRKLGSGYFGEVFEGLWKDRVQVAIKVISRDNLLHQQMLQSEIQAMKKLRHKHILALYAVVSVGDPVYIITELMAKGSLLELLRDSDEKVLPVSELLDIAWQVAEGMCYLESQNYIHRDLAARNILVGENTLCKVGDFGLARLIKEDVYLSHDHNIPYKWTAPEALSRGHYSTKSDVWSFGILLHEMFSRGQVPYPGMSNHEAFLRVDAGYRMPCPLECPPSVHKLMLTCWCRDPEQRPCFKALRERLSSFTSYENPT

ANKK1 = ANKK1 (Homo sapiens, UniProt Q8NFD2)
p38-gamma = biological target: T2, p38-gamma (Homo sapiens, UniProt P53778)
T2 construct: gene MAPK12

TBK1 = TBK1 (Homo sapiens, UniProt Q9UHD2)
TBK1, sequence (Q9UHD2 whole entry): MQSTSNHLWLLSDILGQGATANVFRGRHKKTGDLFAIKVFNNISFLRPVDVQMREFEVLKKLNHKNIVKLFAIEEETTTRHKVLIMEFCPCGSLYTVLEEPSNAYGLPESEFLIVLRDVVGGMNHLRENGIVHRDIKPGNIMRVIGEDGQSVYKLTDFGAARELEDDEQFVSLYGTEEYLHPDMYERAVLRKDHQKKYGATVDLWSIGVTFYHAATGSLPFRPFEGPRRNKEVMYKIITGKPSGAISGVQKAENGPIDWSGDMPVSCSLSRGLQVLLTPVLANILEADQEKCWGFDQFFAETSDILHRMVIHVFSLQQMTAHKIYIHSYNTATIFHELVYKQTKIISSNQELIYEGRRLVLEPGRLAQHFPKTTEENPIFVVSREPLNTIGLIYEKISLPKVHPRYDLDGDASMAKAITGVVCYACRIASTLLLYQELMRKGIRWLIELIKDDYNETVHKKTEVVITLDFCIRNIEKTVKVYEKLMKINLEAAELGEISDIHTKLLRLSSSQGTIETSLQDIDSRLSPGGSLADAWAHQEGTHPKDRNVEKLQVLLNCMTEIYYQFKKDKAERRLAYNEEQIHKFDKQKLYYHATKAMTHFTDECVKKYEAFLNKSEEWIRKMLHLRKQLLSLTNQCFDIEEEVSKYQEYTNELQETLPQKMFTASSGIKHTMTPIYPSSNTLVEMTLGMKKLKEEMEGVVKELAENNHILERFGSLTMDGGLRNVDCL

TXK = TXK (Homo sapiens, UniProt P42681)
YSK4 = biological target: T3, YSK4 (Homo sapiens, UniProt Q56UN5)
T3 construct: gene MAP3K19

CASK = CASK (Homo sapiens, UniProt O14936)
MAP3K4 = MAP3K4 (Homo sapiens, UniProt Q9Y6R4)
[1] = biological target: T4, RSK1(Kin.Dom.1-N-terminal) (Homo sapiens, UniProt Q15418)
T4 construct: gene RPS6KA1; Kin.Dom.1-N-terminal

CDK4 = CDK4 (Homo sapiens, UniProt P11802)
PRKCD = PRKCD (Homo sapiens, UniProt Q05655)
RIPK2 = RIPK2 (Homo sapiens, UniProt O43353)
RIPK2, sequence (O43353 whole entry): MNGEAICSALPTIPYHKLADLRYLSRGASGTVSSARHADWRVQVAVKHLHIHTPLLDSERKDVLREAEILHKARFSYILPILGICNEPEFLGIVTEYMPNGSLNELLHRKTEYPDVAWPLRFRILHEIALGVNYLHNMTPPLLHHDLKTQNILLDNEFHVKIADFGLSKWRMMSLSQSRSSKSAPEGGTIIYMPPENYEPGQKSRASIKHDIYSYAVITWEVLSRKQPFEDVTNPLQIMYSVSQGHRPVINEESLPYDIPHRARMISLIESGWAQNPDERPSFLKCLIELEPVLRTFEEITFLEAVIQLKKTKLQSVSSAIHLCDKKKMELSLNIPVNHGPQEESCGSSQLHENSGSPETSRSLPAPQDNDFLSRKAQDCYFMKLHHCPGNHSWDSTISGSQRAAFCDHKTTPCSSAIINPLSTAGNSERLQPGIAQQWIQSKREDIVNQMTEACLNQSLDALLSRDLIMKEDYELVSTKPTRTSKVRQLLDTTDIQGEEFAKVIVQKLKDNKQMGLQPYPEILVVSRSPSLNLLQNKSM

MYO3A = MYO3A (Homo sapiens, UniProt Q8NEV4)
MYO3A, sequence (Q8NEV4 whole entry): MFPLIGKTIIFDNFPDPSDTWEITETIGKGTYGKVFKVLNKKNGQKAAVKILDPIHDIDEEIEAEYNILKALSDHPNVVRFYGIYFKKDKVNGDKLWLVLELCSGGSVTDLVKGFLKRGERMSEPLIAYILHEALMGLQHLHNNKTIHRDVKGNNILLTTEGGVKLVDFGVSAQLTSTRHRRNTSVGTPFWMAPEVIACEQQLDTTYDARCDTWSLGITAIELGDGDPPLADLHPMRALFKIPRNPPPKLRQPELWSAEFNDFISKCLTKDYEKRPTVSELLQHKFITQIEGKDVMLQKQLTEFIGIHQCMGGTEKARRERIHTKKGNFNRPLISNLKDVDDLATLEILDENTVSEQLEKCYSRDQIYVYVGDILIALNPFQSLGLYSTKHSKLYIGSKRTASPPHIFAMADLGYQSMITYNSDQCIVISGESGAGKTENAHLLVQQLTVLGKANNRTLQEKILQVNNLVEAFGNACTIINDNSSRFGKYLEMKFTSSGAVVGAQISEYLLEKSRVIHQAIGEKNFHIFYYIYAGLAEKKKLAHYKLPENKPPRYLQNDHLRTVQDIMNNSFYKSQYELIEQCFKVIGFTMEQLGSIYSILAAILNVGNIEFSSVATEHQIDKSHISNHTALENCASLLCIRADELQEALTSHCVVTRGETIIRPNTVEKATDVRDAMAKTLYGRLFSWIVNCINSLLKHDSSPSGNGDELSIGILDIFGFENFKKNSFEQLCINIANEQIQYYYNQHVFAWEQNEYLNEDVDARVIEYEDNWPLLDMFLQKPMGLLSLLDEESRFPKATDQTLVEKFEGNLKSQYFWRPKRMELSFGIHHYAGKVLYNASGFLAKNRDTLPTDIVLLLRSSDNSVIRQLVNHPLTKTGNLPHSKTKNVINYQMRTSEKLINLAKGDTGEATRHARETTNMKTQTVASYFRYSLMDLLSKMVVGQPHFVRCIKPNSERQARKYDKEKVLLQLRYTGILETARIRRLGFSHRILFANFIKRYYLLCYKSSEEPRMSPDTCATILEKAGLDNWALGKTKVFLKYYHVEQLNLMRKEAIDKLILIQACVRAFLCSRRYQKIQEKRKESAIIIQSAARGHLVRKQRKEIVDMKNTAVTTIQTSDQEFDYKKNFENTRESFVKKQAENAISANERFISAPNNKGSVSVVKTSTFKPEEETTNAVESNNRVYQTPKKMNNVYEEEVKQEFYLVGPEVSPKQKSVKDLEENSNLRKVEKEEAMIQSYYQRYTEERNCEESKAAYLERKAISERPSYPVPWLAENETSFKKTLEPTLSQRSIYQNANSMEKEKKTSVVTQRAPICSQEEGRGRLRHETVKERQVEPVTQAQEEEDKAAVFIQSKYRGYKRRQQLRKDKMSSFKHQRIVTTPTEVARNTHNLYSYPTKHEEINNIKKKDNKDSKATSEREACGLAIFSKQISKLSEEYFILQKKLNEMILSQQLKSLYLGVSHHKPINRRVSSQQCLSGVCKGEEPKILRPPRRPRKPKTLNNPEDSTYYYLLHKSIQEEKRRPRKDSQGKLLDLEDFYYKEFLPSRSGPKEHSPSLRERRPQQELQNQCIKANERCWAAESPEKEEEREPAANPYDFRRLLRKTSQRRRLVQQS

GRK2 = GRK2 (Homo sapiens, UniProt P25098)
SNRK = SNRK (Homo sapiens, UniProt Q9NRH2)
SNRK, sequence (Q9NRH2 whole entry): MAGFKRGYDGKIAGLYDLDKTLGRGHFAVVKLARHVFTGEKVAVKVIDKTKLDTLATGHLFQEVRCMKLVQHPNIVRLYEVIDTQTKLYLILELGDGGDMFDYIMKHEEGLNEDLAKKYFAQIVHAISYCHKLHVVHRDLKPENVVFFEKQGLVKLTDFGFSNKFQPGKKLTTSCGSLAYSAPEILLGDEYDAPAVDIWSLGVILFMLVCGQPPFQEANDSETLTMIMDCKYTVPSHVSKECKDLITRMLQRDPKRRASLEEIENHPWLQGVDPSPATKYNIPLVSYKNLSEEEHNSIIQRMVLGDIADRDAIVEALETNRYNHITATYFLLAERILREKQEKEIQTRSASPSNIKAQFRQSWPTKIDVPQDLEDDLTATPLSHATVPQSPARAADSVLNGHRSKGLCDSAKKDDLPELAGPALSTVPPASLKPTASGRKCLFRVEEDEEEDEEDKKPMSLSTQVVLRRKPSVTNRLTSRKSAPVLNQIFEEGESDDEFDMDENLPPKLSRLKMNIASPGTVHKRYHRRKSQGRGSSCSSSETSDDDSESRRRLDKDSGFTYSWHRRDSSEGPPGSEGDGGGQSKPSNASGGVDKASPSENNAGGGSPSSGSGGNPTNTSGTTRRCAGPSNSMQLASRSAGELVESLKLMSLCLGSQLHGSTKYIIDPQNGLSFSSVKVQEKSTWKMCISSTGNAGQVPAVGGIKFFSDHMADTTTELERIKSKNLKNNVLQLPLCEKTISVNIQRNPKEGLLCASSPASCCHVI

CSNK2A2 = CSNK2A2 (Homo sapiens, UniProt P19784)
AURKC = AURKC (Homo sapiens, UniProt Q9UQB9)
DAPK3 = DAPK3 (Homo sapiens, UniProt O43293)
DAPK3, sequence (O43293 whole entry): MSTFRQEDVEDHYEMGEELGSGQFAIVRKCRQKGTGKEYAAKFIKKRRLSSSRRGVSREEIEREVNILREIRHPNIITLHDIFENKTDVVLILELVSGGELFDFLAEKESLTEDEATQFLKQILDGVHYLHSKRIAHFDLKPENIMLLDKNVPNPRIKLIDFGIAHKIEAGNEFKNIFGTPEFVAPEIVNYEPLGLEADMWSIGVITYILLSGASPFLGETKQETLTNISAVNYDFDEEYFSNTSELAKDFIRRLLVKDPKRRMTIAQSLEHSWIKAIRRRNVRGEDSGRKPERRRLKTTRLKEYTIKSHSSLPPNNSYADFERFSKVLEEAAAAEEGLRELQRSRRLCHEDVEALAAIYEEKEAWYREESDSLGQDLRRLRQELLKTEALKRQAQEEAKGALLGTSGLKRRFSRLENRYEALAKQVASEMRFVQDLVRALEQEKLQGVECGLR

WNK1 = WNK1 (Homo sapiens, UniProt Q9H4A3)
KIT(V559D) = KIT(V559D) (Homo sapiens, UniProt P10721, V559D)
AKT3 = AKT3 (Homo sapiens, UniProt Q9Y243)
MAP3K2 = MAP3K2 (Homo sapiens, UniProt Q9Y2U5)
CLK1 = CLK1 (Homo sapiens, UniProt P49759)
MEK4 = biological target: T5, MEK4 (Homo sapiens, UniProt P45985)
T5 construct: gene MAP2K4
T5 sequence (P45985 whole entry): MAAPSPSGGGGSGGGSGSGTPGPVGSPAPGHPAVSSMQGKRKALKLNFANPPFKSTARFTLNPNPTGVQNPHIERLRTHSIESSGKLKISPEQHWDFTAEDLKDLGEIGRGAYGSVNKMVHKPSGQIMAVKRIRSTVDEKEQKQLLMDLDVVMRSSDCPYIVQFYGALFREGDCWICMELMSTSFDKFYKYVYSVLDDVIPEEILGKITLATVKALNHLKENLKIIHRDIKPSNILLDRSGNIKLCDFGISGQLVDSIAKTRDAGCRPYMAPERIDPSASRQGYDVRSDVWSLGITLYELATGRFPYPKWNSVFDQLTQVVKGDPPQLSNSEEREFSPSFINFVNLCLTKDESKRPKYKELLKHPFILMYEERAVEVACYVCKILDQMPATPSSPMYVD
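Note: KINOMEscan kinase panel binding assay, signal normalized between DMSO as 100% and a positive control compound as 0%.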

Cc1cnc2nc1Nc1cccc(c1)COCc1cc(ccc1OCCN1CCCC1)N2 [Compound 1]
remaining binding at 0.1 µM (PIM2): 100%
remaining binding at 0.1 µM (BRK): 98%
remaining binding at 0.1 µM (ANKK1): 86%
remaining binding at 0.1 µM (p38-gamma): 100%
remaining binding at 0.1 µM (TBK1): 76%
remaining binding at 0.1 µM (TXK): 94%
remaining binding at 0.1 µM (YSK4): 11%
remaining binding at 0.1 µM (CASK): 73%
remaining binding at 0.1 µM (MAP3K4): 100%
remaining binding at 0.1 µM [1]: 97%
remaining binding at 0.1 µM (CDK4): 96%
remaining binding at 0.1 µM (PRKCD): 100%
remaining binding at 0.1 µM (RIPK2): 99%
remaining binding at 0.1 µM (MYO3A): 100%
remaining binding at 0.1 µM (GRK2): 90%
remaining binding at 0.1 µM (SNRK): 78%
remaining binding at 0.1 µM (CSNK2A2): 62%
remaining binding at 0.1 µM (AURKC): 100%
remaining binding at 0.1 µM (DAPK3): 94%
remaining binding at 0.1 µM (WNK1): 90%
remaining binding at 0.1 µM (KIT(V559D)): 51%
remaining binding at 0.1 µM (AKT3): 100%
remaining binding at 0.1 µM (MAP3K2): 50%
remaining binding at 0.1 µM (CLK1): 95%
remaining binding at 0.1 µM (MEK4): 92%
